Measured values taken from ChEMBL document CHEMBL4482303, “Test system for measuring mest activity as well as methods and uses involving the same” (2012).

What was measured:
[1] = molecular target: T1, Mesoderm-specific transcript homolog protein (Homo sapiens) (UniProt Q5EB52); assay: (§1) Inhibition of human recombinant MEST T580B (11 to 335 amino acids) expressed in Sf9 cell membranes assessed as reduction in glycerol 3-phosphate acyltransferase activity at 10 uM using [3H]-glycerol 3-phosphate and palmitoyl CoA incubated for 60 mins by scintillation counting assay relative to control
T1 sequence (whole entry): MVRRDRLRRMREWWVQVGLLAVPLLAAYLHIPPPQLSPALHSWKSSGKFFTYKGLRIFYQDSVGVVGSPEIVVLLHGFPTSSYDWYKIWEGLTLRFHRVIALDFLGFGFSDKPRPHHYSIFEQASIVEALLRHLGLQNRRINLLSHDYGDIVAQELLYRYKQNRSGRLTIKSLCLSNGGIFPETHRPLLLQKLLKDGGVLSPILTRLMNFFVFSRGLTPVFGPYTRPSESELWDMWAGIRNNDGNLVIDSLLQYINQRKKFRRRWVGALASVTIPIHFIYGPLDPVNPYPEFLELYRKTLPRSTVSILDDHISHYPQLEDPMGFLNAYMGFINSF

[2] = molecular target: T1, Mesoderm-specific transcript homolog protein (Homo sapiens); assay: as §1, with “3” for “10”
[3] = molecular target: T1, Mesoderm-specific transcript homolog protein (Homo sapiens); assay: as §1, with “T579B (2” for “T580B (11”, “0.03” for “10”
[4] = molecular target: T2, Glycerol-3-phosphate acyltransferase 1, mitochondrial (Homo sapiens) (UniProt Q9HCL2); assay: Inhibition of GPAT1 (unknown origin) expressed in Sf9 cell membranes assessed as reduction in glycerol 3-phosphate acyltransferase activity at 0.1 uM using [3H]-glycerol 3-phosphate and palmitoyl CoA incubated for 60 mins by scintillation counting assay relative to control
T2 sequence (whole entry): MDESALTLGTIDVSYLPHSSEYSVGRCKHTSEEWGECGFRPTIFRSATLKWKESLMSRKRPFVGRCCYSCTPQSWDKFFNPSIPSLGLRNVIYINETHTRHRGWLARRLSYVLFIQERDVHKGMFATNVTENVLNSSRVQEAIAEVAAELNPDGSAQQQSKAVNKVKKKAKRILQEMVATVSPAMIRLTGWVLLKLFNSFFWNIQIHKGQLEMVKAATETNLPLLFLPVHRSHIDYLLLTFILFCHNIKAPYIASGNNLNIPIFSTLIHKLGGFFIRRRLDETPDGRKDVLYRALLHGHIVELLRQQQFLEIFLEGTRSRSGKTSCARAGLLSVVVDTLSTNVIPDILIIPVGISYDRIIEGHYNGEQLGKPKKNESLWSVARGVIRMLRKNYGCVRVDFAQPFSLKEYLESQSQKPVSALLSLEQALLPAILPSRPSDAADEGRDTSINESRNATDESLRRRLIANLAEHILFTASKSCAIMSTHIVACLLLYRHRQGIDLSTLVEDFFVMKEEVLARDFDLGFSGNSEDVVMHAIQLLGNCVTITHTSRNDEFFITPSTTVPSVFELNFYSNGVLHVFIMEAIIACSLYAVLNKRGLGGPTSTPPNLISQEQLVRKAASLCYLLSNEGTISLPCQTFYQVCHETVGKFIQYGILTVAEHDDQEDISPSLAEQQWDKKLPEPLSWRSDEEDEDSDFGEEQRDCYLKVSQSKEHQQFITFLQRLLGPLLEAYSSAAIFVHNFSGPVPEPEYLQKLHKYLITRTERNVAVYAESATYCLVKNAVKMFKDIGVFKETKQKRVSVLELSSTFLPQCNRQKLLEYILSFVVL

[5] = molecular target: T3, Glycerol-3-phosphate acyltransferase 3 (Homo sapiens) (UniProt Q53EU6); assay: Inhibition of GPAT3 (unknown origin) expressed in Sf9 cell membranes assessed as reduction in glycerol 3-phosphate acyltransferase activity at 3 uM using [3H]-glycerol 3-phosphate and palmitoyl CoA incubated for 60 mins by scintillation counting assay relative to control
T3 sequence (whole entry): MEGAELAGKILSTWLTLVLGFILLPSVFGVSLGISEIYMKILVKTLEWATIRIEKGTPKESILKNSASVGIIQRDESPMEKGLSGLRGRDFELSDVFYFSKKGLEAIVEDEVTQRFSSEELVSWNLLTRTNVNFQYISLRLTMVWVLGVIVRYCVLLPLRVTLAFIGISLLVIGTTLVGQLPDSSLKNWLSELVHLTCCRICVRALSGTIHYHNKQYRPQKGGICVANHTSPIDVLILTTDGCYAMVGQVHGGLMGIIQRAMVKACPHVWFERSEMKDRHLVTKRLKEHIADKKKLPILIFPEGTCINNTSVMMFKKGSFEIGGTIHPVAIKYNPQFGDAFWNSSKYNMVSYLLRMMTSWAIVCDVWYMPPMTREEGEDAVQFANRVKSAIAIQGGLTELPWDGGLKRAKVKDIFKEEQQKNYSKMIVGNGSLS

[6] = molecular target: T1, Mesoderm-specific transcript homolog protein (Homo sapiens); assay: as §1, with “T579B (2” for “T580B (11”, “0.3” for “10”
[7] = molecular target: T1, Mesoderm-specific transcript homolog protein (Homo sapiens); assay: as §1, with “0.3” for “10”
[8] = molecular target: T3, Glycerol-3-phosphate acyltransferase 3 (Homo sapiens); assay: Inhibition of GPAT3 (unknown origin) expressed in Sf9 cell membranes assessed as reduction in glycerol 3-phosphate acyltransferase activity at 1 uM using [3H]-glycerol 3-phosphate and palmitoyl CoA incubated for 60 mins by scintillation counting assay relative to control
[9] = molecular target: T1, Mesoderm-specific transcript homolog protein (Homo sapiens); assay: as §1, with “T579B (2” for “T580B (11”
[10] = molecular target: T4, Glycerol-3-phosphate acyltransferase 4 (Homo sapiens) (UniProt Q86UL3); assay: Inhibition of GPAT4 (unknown origin) expressed in Sf9 cell membranes assessed as reduction in glycerol 3-phosphate acyltransferase activity at 3 uM using [3H]-glycerol 3-phosphate and palmitoyl CoA incubated for 60 mins by scintillation counting assay relative to control
T4 sequence (whole entry): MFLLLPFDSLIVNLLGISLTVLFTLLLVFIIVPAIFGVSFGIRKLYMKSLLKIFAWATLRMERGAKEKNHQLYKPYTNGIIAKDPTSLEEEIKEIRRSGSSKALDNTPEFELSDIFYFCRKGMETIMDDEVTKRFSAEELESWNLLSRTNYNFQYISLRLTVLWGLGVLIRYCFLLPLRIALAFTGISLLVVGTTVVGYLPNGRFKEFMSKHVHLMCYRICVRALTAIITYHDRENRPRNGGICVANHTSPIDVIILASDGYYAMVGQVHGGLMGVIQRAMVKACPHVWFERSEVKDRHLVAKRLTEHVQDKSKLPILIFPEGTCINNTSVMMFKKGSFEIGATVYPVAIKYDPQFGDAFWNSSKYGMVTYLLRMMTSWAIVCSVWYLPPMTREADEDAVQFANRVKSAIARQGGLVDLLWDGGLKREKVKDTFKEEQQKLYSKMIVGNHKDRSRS

[11] = molecular target: T2, Glycerol-3-phosphate acyltransferase 1, mitochondrial (Homo sapiens); assay: Inhibition of GPAT1 (unknown origin) expressed in Sf9 cell membranes assessed as reduction in glycerol 3-phosphate acyltransferase activity at 0.03 uM using [3H]-glycerol 3-phosphate and palmitoyl CoA incubated for 60 mins by scintillation counting assay relative to control
[12] = molecular target: T3, Glycerol-3-phosphate acyltransferase 3 (Homo sapiens); assay: Inhibition of GPAT3 (unknown origin) expressed in Sf9 cell membranes assessed as reduction in glycerol 3-phosphate acyltransferase activity at 0.3 uM using [3H]-glycerol 3-phosphate and palmitoyl CoA incubated for 60 mins by scintillation counting assay relative to control
[13] = molecular target: T1, Mesoderm-specific transcript homolog protein (Homo sapiens); assay: (§2) Inhibition of human recombinant MEST T579B (2 to 335 amino acids) expressed in Sf9 cell membranes assessed as reduction in glycerol 3-phosphate acyltransferase activity using [3H]-glycerol 3-phosphate and palmitoyl CoA incubated for 60 mins by scintillation counting assay
[14] = molecular target: T2, Glycerol-3-phosphate acyltransferase 1, mitochondrial (Homo sapiens); assay: Inhibition of GPAT1 (unknown origin) expressed in Sf9 cell membranes assessed as reduction in glycerol 3-phosphate acyltransferase activity at 1 uM using [3H]-glycerol 3-phosphate and palmitoyl CoA incubated for 60 mins by scintillation counting assay relative to control
[15] = molecular target: T2, Glycerol-3-phosphate acyltransferase 1, mitochondrial (Homo sapiens); assay: Inhibition of GPAT1 (unknown origin) expressed in Sf9 cell membranes assessed as reduction in glycerol 3-phosphate acyltransferase activity at 10 uM using [3H]-glycerol 3-phosphate and palmitoyl CoA incubated for 60 mins by scintillation counting assay relative to control
[16] = molecular target: T4, Glycerol-3-phosphate acyltransferase 4 (Homo sapiens); assay: Inhibition of GPAT4 (unknown origin) expressed in Sf9 cell membranes assessed as reduction in glycerol 3-phosphate acyltransferase activity at 10 uM using [3H]-glycerol 3-phosphate and palmitoyl CoA incubated for 60 mins by scintillation counting assay relative to control
[17] = molecular target: T3, Glycerol-3-phosphate acyltransferase 3 (Homo sapiens); assay: Inhibition of GPAT3 (unknown origin) expressed in Sf9 cell membranes assessed as reduction in glycerol 3-phosphate acyltransferase activity at 0.1 uM using [3H]-glycerol 3-phosphate and palmitoyl CoA incubated for 60 mins by scintillation counting assay relative to control
[18] = molecular target: T1, Mesoderm-specific transcript homolog protein (Homo sapiens); assay: as §1, with “0.1” for “10”
[19] = molecular target: T4, Glycerol-3-phosphate acyltransferase 4 (Homo sapiens); assay: Inhibition of GPAT4 (unknown origin) expressed in Sf9 cell membranes assessed as reduction in glycerol 3-phosphate acyltransferase activity at 0.03 uM using [3H]-glycerol 3-phosphate and palmitoyl CoA incubated for 60 mins by scintillation counting assay relative to control
[20] = molecular target: T1, Mesoderm-specific transcript homolog protein (Homo sapiens); assay: as §2, with “activity at 0.1 uM” for “activity”, “assay relative to control” for “assay”
[21] = molecular target: T4, Glycerol-3-phosphate acyltransferase 4 (Homo sapiens); assay: Inhibition of GPAT4 (unknown origin) expressed in Sf9 cell membranes assessed as reduction in glycerol 3-phosphate acyltransferase activity at 0.3 uM using [3H]-glycerol 3-phosphate and palmitoyl CoA incubated for 60 mins by scintillation counting assay relative to control
[22] = molecular target: T1, Mesoderm-specific transcript homolog protein (Homo sapiens); assay: as §1, with “1” for “10”
[23] = molecular target: T2, Glycerol-3-phosphate acyltransferase 1, mitochondrial (Homo sapiens); assay: Inhibition of GPAT1 (unknown origin) expressed in Sf9 cell membranes assessed as reduction in glycerol 3-phosphate acyltransferase activity at 3 uM using [3H]-glycerol 3-phosphate and palmitoyl CoA incubated for 60 mins by scintillation counting assay relative to control
[24] = molecular target: T1, Mesoderm-specific transcript homolog protein (Homo sapiens); assay: as §1, with “0.03” for “10”
[25] = molecular target: T4, Glycerol-3-phosphate acyltransferase 4 (Homo sapiens); assay: Inhibition of GPAT4 (unknown origin) expressed in Sf9 cell membranes assessed as reduction in glycerol 3-phosphate acyltransferase activity at 1 uM using [3H]-glycerol 3-phosphate and palmitoyl CoA incubated for 60 mins by scintillation counting assay relative to control
[26] = molecular target: T4, Glycerol-3-phosphate acyltransferase 4 (Homo sapiens); assay: Inhibition of GPAT4 (unknown origin) expressed in Sf9 cell membranes assessed as reduction in glycerol 3-phosphate acyltransferase activity at 0.1 uM using [3H]-glycerol 3-phosphate and palmitoyl CoA incubated for 60 mins by scintillation counting assay relative to control
[27] = molecular target: T1, Mesoderm-specific transcript homolog protein (Homo sapiens); assay: Inhibition of human recombinant MEST T579B (2 to 335 amino acids) expressed in Sf9 cell membranes assessed as reduction in glycerol 3-phosphate acyltransferase activity at 3 uM using [3H]-glycerol 3-phosphate and palmitoyl CoA incubated for 60 mins by scintillation counting assay relative to control
[28] = molecular target: T2, Glycerol-3-phosphate acyltransferase 1, mitochondrial (Homo sapiens); assay: Inhibition of GPAT1 (unknown origin) expressed in Sf9 cell membranes assessed as reduction in glycerol 3-phosphate acyltransferase activity at 0.3 uM using [3H]-glycerol 3-phosphate and palmitoyl CoA incubated for 60 mins by scintillation counting assay relative to control
[29] = molecular target: T3, Glycerol-3-phosphate acyltransferase 3 (Homo sapiens); assay: Inhibition of GPAT3 (unknown origin) expressed in Sf9 cell membranes assessed as reduction in glycerol 3-phosphate acyltransferase activity at 0.03 uM using [3H]-glycerol 3-phosphate and palmitoyl CoA incubated for 60 mins by scintillation counting assay relative to control
[30] = molecular target: T1, Mesoderm-specific transcript homolog protein (Homo sapiens); assay: Inhibition of human recombinant MEST T579B (2 to 335 amino acids) expressed in Sf9 cell membranes assessed as reduction in glycerol 3-phosphate acyltransferase activity at 1 uM using [3H]-glycerol 3-phosphate and palmitoyl CoA incubated for 60 mins by scintillation counting assay relative to control
[31] = molecular target: T3, Glycerol-3-phosphate acyltransferase 3 (Homo sapiens); assay: Inhibition of GPAT3 (unknown origin) expressed in Sf9 cell membranes assessed as reduction in glycerol 3-phosphate acyltransferase activity at 10 uM using [3H]-glycerol 3-phosphate and palmitoyl CoA incubated for 60 mins by scintillation counting assay relative to control

- inhibition [1]: 76%
- inhibition [2]: 45%
- inhibition [3]: -5%
- inhibition [4]: 10%
- inhibition [5]: 38%
- inhibition [6]: 24%
- inhibition [7]: 8%
- inhibition [8]: 26%
- inhibition [9]: 69%
- inhibition [10]: 29%
- inhibition [11]: 4%
- inhibition [12]: 12%
- inhibition [13]: Dose-dependent effect
- inhibition [14]: 29%
- inhibition [15]: 72%
- inhibition [16]: 54%
- inhibition [17]: -4%
- inhibition [18]: 10%
- inhibition [19]: 6%
- inhibition [20]: -6%
- inhibition [21]: 15%
- inhibition [22]: 18%
- inhibition [23]: 47%
- inhibition [24]: -6%
- inhibition [25]: 9%
- inhibition [26]: -2%
- inhibition [27]: 51%
- inhibition [28]: 11%
- inhibition [29]: -9%
- inhibition [30]: 27%
- inhibition [31]: 57%
SMILES: O=C(CO)COP(=O)(O)O
